Reference: patent US10202387B2, “Heterocyclyl linked imidazopyridazine derivatives as PI3KB inhibitors” (Janssen Pharmaceutica NV, priority 2014, dated 2019)

Key:
[1] = test system: Akt phosphorylated at Thr308 in PC-3 cells; assay: Cellular assay: phosphorylation of Akt (Thr308) in PC-3 cells, MSD ELISA; assay type: cell-based; details: Homo sapiens, 1 h, 60 min incubation with compound, read-out: IC50 pAkt_Thr308
Experimental: (§1) Cellular activity of PI3Kβ inhibitors was determined by quantifying the phosphorylation of Akt in PC-3 cells. Akt phosphorylated at Ser473 and Thr308 were measured using an enzyme-linked immunosorbent assay (ELISA; Meso Scale Discovery (MSD). Gaithersburg, Md.) and specific primary antibodies from MSD.
(§2) On day 1, PC3 cells (ATCC […]) were seeded into PerkinElmer MW96 plates at 25.000 cells per well, in 75 μl complete culture medium (DMEM (Dulbecco's Modified Eagle's Medium) high glucose. AQmedia™, D0819, Sigma-Aldrich) containing 10% heat inactivated FCS (Fetal Bovine Serum) and incubated at 37° C., 5% CO2 during 24 hours. On day 2, compound or DMSO (dimethyl sulfoxide) (0.3%) was added and cells were further incubated for 60 min at 37° C., 5% CO2 in a total volume of 100 μl of medium.
(§3) The phosphoprotein assay was executed according to vendor instructions in the Phospho-Akt (Ser473) Assay Whole Cell Lysate Kit (MSD #K15100D-3) and the Phospho-Akt (Thr308) Assay Whole Cell Lysate Kit (MSD #K151DYD-3) using the lysis, blocking and wash buffer provided.
(§4) Briefly, at the end of the cell treatment period, media were removed by aspiration and adherent cells were lysed in 50 μl ice-cold lysis buffer. MSD plates are supplied pre-coated with capture antibodies for Phospho-Akt (Ser473 and Thr308). After blocking, lysates from tissue culture plates were added and plates were washed. Then, a solution containing the detection antibody (anti-total Akt conjugated with an electrochemiluminescent compound-MSD Sulfo-tag label) was added. The signals were detected using an MSD SECTOR Imager 6000 and are proportional to the phospho-Akt titres.
(§5) Data were processed. The percentage of inhibition was plotted against the log concentration of test compounds, and the sigmoidal log concentration-effect curve of best fit was calculated by nonlinear regression analysis. From these concentration-response curves, the IC50 values were calculated. Five concentrations were used for curve fitting.

[2] = test system: Akt phosphorylated at Ser473 in PC-3 cells; assay: Cellular assay: phosphorylation of Akt (Ser473) in PC-3 cells, MSD ELISA; assay type: cell-based; details: Homo sapiens, 1 h, 60 min incubation with compound, read-out: IC50 pAkt_S473
Experimental: as §1, §2, §3, §4, §5

MTOR_h = biological target: T1, MTOR_h (Homo sapiens, UniProt P42345); assay: Enzyme binding assay (KINOMEscan); details: DiscoveRx
T1 construct: purchased DiscoveRx Corporation, San Diego (KINOMEscan service)
Experimental: (§6) Enzyme Binding Assays (KINOMEscan®)
(§7) Kinase enzyme binding affinities of compounds disclosed herein were determined using the KINOMEscan technology performed by DiscoveRx Corporation, San Diego, Calif., USA (www.kinomescan.com). Table A reports the obtained Kd values (nM), with the Kd being the inhibitor binding constant: […]

PIK3Cβ_h = biological target: T2, PIK3Cβ_h (Homo sapiens, UniProt P42338); assay: Enzyme binding assay (KINOMEscan); details: DiscoveRx
T2 construct: purchased DiscoveRx Corporation, San Diego (KINOMEscan service)
T2 sequence (P42338 whole entry): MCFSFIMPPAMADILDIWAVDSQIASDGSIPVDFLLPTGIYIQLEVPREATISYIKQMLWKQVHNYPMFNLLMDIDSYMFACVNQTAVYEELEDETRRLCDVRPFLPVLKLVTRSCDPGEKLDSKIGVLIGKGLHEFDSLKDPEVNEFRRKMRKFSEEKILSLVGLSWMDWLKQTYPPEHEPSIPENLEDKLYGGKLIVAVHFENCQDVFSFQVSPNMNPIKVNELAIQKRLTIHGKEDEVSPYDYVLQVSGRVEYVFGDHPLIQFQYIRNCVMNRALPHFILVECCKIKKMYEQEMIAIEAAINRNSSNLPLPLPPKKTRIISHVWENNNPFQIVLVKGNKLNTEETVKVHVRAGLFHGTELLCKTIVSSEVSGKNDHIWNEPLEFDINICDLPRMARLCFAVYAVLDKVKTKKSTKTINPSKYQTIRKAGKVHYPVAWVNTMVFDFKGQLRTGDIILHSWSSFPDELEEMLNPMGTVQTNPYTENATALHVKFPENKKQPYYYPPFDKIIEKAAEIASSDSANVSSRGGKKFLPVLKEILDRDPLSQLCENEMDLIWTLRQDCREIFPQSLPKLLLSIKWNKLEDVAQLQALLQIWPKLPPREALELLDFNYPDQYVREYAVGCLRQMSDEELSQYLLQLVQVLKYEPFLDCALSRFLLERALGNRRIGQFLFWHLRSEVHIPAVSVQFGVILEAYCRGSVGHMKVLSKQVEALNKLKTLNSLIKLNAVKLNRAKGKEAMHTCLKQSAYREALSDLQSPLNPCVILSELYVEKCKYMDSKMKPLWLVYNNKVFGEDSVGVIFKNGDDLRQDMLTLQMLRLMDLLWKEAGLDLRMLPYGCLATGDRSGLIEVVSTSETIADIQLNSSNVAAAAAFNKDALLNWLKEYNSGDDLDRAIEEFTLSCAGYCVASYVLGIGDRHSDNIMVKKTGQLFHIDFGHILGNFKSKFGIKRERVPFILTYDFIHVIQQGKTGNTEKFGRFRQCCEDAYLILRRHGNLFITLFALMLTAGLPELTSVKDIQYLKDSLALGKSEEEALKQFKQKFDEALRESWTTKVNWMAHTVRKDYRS
Experimental: as §6, §7

PIK3Cδ_h = biological target: T3, PIK3Cδ_h (Homo sapiens, UniProt O00329); assay: Enzyme binding assay (KINOMEscan); details: DiscoveRx
T3 construct: purchased DiscoveRx Corporation, San Diego (KINOMEscan service)
T3 sequence (O00329 1-1044): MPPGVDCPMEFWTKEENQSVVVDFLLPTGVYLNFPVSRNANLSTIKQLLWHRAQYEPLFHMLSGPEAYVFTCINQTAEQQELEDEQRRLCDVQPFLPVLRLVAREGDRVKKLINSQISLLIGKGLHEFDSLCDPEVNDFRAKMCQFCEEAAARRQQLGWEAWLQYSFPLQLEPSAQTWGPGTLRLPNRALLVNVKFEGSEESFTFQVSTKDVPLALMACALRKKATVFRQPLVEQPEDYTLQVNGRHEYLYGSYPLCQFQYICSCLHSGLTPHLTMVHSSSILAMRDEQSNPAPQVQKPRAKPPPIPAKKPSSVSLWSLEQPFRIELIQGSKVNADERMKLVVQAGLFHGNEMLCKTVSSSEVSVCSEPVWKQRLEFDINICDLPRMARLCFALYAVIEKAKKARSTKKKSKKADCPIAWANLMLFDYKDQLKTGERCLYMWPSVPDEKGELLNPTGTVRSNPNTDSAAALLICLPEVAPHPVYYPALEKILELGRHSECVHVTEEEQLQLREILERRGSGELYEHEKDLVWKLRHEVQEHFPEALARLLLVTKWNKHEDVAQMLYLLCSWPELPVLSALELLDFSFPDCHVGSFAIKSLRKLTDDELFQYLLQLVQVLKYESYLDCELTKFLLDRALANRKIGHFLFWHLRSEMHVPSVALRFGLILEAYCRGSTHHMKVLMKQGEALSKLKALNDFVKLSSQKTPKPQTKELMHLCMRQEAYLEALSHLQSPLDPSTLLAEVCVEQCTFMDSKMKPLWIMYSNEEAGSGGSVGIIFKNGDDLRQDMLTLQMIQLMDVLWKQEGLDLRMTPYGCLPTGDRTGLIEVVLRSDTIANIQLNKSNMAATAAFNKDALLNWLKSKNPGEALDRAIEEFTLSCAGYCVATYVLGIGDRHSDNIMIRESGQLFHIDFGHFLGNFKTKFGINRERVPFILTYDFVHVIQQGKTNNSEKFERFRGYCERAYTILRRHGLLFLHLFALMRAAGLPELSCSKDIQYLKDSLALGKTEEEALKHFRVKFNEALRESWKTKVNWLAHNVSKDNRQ
Experimental: as §6, §7

PIK3Cγ_h = biological target: T4, PIK3Cγ_h (Homo sapiens, UniProt P48736); assay: Enzyme binding assay (KINOMEscan); details: DiscoveRx
T4 construct: purchased DiscoveRx Corporation, San Diego (KINOMEscan service)
T4 sequence (P48736 whole entry): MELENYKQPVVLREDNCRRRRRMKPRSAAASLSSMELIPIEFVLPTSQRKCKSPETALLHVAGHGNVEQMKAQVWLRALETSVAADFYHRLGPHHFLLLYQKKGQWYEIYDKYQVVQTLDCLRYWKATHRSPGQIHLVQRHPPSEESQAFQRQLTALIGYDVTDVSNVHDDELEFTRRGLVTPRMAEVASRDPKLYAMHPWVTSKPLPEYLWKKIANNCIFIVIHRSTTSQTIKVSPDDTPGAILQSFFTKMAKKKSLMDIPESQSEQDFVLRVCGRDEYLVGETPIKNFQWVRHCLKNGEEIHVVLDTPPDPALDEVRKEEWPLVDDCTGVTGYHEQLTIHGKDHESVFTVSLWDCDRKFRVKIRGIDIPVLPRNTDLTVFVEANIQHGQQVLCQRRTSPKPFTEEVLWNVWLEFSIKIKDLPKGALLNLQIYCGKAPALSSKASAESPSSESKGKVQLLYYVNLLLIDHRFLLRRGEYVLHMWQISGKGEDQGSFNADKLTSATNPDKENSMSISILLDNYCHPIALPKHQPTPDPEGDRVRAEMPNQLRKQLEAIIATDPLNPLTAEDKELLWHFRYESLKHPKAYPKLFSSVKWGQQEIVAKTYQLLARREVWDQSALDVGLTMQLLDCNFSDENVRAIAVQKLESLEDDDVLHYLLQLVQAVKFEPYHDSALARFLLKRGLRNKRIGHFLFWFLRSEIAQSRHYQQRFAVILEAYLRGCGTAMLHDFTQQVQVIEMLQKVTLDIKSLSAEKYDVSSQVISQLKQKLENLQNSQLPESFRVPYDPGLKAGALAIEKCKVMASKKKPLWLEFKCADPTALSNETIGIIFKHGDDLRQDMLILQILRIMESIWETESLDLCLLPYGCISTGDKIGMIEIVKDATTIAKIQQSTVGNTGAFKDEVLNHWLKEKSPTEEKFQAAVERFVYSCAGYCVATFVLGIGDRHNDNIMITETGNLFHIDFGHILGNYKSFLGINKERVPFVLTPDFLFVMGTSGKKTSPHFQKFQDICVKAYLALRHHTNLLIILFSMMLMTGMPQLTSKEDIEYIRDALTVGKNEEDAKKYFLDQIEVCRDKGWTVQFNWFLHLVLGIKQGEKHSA
Experimental: as §6, §7

PIK3Cα_h = biological target: T5, PIK3Cα_h (Homo sapiens, UniProt P42336); assay: Enzyme binding assay (KINOMEscan); details: DiscoveRx
T5 construct: purchased DiscoveRx Corporation, San Diego (KINOMEscan service)
T5 sequence (P42336 whole entry): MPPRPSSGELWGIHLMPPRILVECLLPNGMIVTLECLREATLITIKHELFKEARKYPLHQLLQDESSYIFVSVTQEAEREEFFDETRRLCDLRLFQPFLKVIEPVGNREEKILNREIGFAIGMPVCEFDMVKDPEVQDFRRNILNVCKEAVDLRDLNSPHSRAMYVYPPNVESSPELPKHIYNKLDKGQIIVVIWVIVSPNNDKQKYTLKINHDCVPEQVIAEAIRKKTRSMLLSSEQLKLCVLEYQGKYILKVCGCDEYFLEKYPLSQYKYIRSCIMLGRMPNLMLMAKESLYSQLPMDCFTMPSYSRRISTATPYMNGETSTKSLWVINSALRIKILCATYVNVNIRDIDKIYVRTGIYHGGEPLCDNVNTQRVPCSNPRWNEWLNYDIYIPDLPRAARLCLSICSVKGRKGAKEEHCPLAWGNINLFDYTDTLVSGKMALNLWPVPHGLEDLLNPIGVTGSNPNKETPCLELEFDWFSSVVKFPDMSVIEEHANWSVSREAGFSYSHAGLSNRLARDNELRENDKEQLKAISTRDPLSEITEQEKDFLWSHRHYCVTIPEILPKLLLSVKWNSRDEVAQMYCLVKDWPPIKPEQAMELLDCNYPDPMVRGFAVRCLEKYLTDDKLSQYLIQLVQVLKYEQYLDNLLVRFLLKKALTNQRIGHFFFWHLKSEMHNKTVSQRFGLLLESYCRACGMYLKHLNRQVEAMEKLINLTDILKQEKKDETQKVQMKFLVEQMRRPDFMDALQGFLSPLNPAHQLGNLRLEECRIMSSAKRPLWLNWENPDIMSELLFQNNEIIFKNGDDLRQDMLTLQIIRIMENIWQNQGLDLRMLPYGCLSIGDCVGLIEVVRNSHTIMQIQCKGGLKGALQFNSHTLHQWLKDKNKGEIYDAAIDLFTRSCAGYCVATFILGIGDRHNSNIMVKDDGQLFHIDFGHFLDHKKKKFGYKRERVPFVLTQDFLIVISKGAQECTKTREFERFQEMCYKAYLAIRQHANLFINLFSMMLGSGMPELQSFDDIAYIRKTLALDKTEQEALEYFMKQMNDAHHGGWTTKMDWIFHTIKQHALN
Experimental: as §6, §7

`Cc1c(Cc2c(CN3CCC(N)CC3)nc3c(N)cc(N4CCOCC4)nn23)cccc1C(F)(F)F` [Compound 14] gave an IC50 [1] of 0.069 µM, an IC50 [2] of 0.068 µM and a Kd (MTOR_h) of 13.8 µM. The Kd (PIK3Cβ_h) was 0.0003 µM, the Kd (PIK3Cδ_h) was 0.04 µM and the Kd (PIK3Cγ_h) was 4.9 µM. It also gave a Kd (PIK3Cα_h) of 7.41 µM.
For `Cc1c(Cc2c(CN3CCCC34CCS(=O)(=O)C4)nc3c(N)cc(N4CCOCC4)nn23)cccc1C(F)(F)F` (stereo not shown) [Compound 31], the IC50 [1] was 0.066 µM, the IC50 [2] was 0.117 µM and the Kd (MTOR_h) was greater than 30.2 µM. The Kd (PIK3Cβ_h) was 0.0048 µM, the Kd (PIK3Cδ_h) was 0.479 µM and the Kd (PIK3Cγ_h) was greater than 30.2 µM. It also gave a Kd (PIK3Cα_h) greater than 30.2 µM.
`[2H]C1([2H])OC([2H])([2H])C([2H])([2H])N(c2cc(N)c3nc(CN4CC5(C4)CS(=O)(=O)C5)c(Cc4cccc(C(F)(F)F)c4C)n3n2)C1([2H])[2H]` [Compound 30] gave an IC50 [1] of 0.004 µM, an IC50 [2] of 0.004 µM and a Kd (MTOR_h) of 8.13 µM. The Kd (PIK3Cβ_h) was 0.0003 µM, the Kd (PIK3Cδ_h) was 0.012 µM and the Kd (PIK3Cγ_h) was 20 µM. For the same compound, the Kd (PIK3Cα_h) was 0.617 µM.
Work on `Cc1c(Cc2c(CN3CC4(C3)CS(=O)(=O)C4)nc3c(N)cc(N4CCOCC4)nn23)cccc1C(F)(F)F` [Compound 7] yielded an IC50 [1] of 0.003 µM, an IC50 [2] of 0.004 µM and a Kd (MTOR_h) of 11.4 µM. The Kd (PIK3Cβ_h) was 0.0005 µM, the Kd (PIK3Cδ_h) was 0.008 µM and the Kd (PIK3Cγ_h) was 27.6 µM. For the same compound, the Kd (PIK3Cα_h) was 0.436 µM.
`Cc1c(Cc2c(CNC(=O)[C@@H]3CCCN3C)nc3c(N)cc(N4CCOCC4)nn23)cccc1C(F)(F)F` [Compound 39] gave an IC50 [1] of 0.038 µM, an IC50 [2] of 0.044 µM and a Kd (MTOR_h) of 7.39 µM. It also gave a Kd (PIK3Cβ_h) of 0.0003 µM, a Kd (PIK3Cδ_h) of 0.082 µM and a Kd (PIK3Cγ_h) of 11.7 µM. The Kd (PIK3Cα_h) was 3.55 µM.
In the case of `Cc1c(Cc2c(CN3CC(C)NC(C)C3)nc3c(-c4ncc[nH]4)cc(N4CCOCC4)nn23)cccc1C(F)(F)F` (stereo not shown) [Compound 18], the IC50 [1] is reported as 0.051 µM, the IC50 [2] is reported as 0.095 µM and the Kd (MTOR_h) is reported as 6.07 µM. For the same compound, the Kd (PIK3Cβ_h) was 0.0008 µM, the Kd (PIK3Cδ_h) was 0.014 µM and the Kd (PIK3Cγ_h) was 3.89 µM. For the same compound, the Kd (PIK3Cα_h) was 0.475 µM.
`Cc1c(Cc2c(CN3CCC4(CCS(=O)(=O)C4)C3)nc3c(N)cc(N4CCOCC4)nn23)cccc1C(F)(F)F` (stereo not shown) [Compound 34] showed an IC50 [1] of roughly 0.074 µM, an IC50 [2] of 0.087 µM and a Kd (MTOR_h) of 18.2 µM. It also gave a Kd (PIK3Cβ_h) of 0.0015 µM, a Kd (PIK3Cδ_h) of 0.224 µM and a Kd (PIK3Cγ_h) greater than 30.2 µM. The Kd (PIK3Cα_h) was 6.31 µM.
In the case of `Cc1c(Cc2c(CNC(=O)[C@@H]3C[C@@H](F)CN3)nc3c(N)cc(N4CCOCC4)nn23)cccc1C(F)(F)F` [Compound 38], the IC50 [1] is reported as 0.031 µM, the IC50 [2] is reported as 0.054 µM and the Kd (MTOR_h) is reported as 0.355 µM. It also gave a Kd (PIK3Cβ_h) of 0.0002 µM, a Kd (PIK3Cδ_h) of 0.014 µM and a Kd (PIK3Cγ_h) greater than 30.2 µM. For the same compound, the Kd (PIK3Cα_h) was 1 µM.
Compound `Cc1c(Nc2c(CN3CC(C)NC(C)C3)nc3c(C(N)=O)cc(N4CCOCC4)nn23)cccc1C(F)(F)F` (stereo not shown) [Compound 21] has an IC50 [1] of roughly 0.069 µM, an IC50 [2] of 0.107 µM and a Kd (MTOR_h) of 20 µM. For the same compound, the Kd (PIK3Cβ_h) was 0.0011 µM, the Kd (PIK3Cδ_h) was 0.129 µM and the Kd (PIK3Cγ_h) was 4.17 µM. It also gave a Kd (PIK3Cα_h) of 1.29 µM.
For `Cc1c(Cc2c(CNC(=O)[C@@H]3CCCN3)nc3c(N)cc(N4CCOCC4)nn23)cccc1C(F)(F)F` [Compound 35], the IC50 [1] was 0.018 µM, the IC50 [2] was 0.027 µM and the Kd (MTOR_h) was 3.22 µM. For the same compound, the Kd (PIK3Cβ_h) was 0.0002 µM, the Kd (PIK3Cδ_h) was 0.007 µM and the Kd (PIK3Cγ_h) was 8.64 µM. For the same compound, the Kd (PIK3Cα_h) was 2.05 µM.
Compound `Cc1c(Cc2c(CN3CC(O)C3)nc3c(N)cc(N4CCOCC4)nn23)cccc1C(F)(F)F` [Compound 3] has an IC50 [1] of 0.066 µM, an IC50 [2] of roughly 0.089 µM and a Kd (MTOR_h) of 11 µM. It also gave a Kd (PIK3Cβ_h) of 0.0017 µM, a Kd (PIK3Cδ_h) of 0.191 µM and a Kd (PIK3Cγ_h) of 16.2 µM. The Kd (PIK3Cα_h) was 11.5 µM.
`Cc1c(Cc2c(CN3CC4(CC(O)C4)C3)nc3c(C(=O)O)cc(N4CCOCC4)nn23)cccc1C(F)(F)F` [Compound 29] showed an IC50 [1] greater than 0.513 µM, an IC50 [2] greater than 0.513 µM and a Kd (MTOR_h) greater than 30.2 µM. It also gave a Kd (PIK3Cβ_h) of 0.0007 µM, a Kd (PIK3Cδ_h) of 0.112 µM and a Kd (PIK3Cγ_h) of 28.2 µM. It also gave a Kd (PIK3Cα_h) of 6.31 µM.
In the case of `Cc1c(Cc2c(CN3CC4(C3)CS(=O)(=O)C4)nc3c(C(=O)O)cc(N4CCOCC4)nn23)cccc1C(F)(F)F` [Compound 28], the IC50 [1] is reported as greater than 0.513 µM, the IC50 [2] is reported as greater than 0.513 µM and the Kd (MTOR_h) is reported as 21.4 µM. The Kd (PIK3Cβ_h) was 0.0002 µM, the Kd (PIK3Cδ_h) was 0.013 µM and the Kd (PIK3Cγ_h) was 15.1 µM. The Kd (PIK3Cα_h) was 0.372 µM.
